Calls of active or inactive are those of the source. The rule behind the calls is not given here.
How the values were obtained:
Aspergillus niger [1] = test: Antifungal activity against Aspergillus niger ATCC 10949 at 40 ug/disk after 72 hr by disk diffusion method; type: functional, organism-based
Aspergillus niger [2] = test: Antifungal activity against Aspergillus niger ATCC 10949 at 20 ug/disk after 72 hr by disk diffusion method; type: functional, organism-based
Rhodotorula mucilaginosa [3] = test: Antifungal activity against Rhodotorula mucilaginosa at 140 ug/disk after 48 hr by disk diffusion method; type: functional; settings: for zone of inhibition at 140 µg/disc: read-out: DIZ
Rhodotorula mucilaginosa [4] = test: Antifungal activity against Rhodotorula mucilaginosa at 20 ug/disk after 48 hr by disk diffusion method; type: functional
Rhodotorula mucilaginosa [5] = test: Antifungal activity against Rhodotorula mucilaginosa at 40 ug/disk after 48 hr by disk diffusion method; type: functional
Candida albicans [6] = test: Antifungal activity against Candida albicans ATCC 10231 at 140 ug/disk after 48 hr by disk-diffusion method; type: functional; settings: for zone of inhibition at 140 µg/disc: ATCC 10231, 48 h, read-out: DIZ
Candida albicans [7] = test: Antifungal activity against Candida albicans ATCC 10231 at 40 ug/disk after 48 hr by disk-diffusion method; type: functional; settings: for zone of inhibition at 40 µg/disc: ATCC 10231, 48 h, read-out: DIZ
Candida albicans [8] = test: Antifungal activity against Candida albicans ATCC 10231 at 20 ug/disk after 48 hr by disk-diffusion method; type: functional; settings: for zone of inhibition at 20 µg/disc: ATCC 10231, 48 h, read-out: DIZ
Proteus vulgaris [9] = test: Antibacterial activity against Proteus vulgaris NRRL-B-123 at 140 ug/disk after 24 hr by disk diffusion method; type: functional, organism-based
Aspergillus niger [10] = test: Antifungal activity against Aspergillus niger ATCC 10949 at 140 ug/disk after 72 hr by disk diffusion method; type: functional; settings: for zone of inhibition at 140 µg/disc: ATCC 10949, 72 h, read-out: DIZ
Proteus vulgaris [11] = test: Antibacterial activity against Proteus vulgaris NRRL-B-123 at 40 ug/disk after 24 hr by disk diffusion method; type: functional, organism-based
Proteus vulgaris [12] = test: Antibacterial activity against Proteus vulgaris NRRL-B-123 at 20 ug/disk after 24 hr by disk diffusion method; type: functional, organism-based
Pseudomonas aeruginosa [13] = test: Antibacterial activity against Pseudomonas aeruginosa ATCC 27853 at 140 ug/disk after 24 hr by disk-diffusion method; type: functional, organism-based
Pseudomonas aeruginosa [14] = test: Antibacterial activity against Pseudomonas aeruginosa ATCC 27853 at 40 ug/disk after 24 hr by disk-diffusion method; type: functional, organism-based
Pseudomonas aeruginosa [15] = test: Antibacterial activity against Pseudomonas aeruginosa ATCC 27853 at 20 ug/disk after 24 hr by disk-diffusion method; type: functional, organism-based
Escherichia coli [16] = test: Antibacterial activity against Escherichia coli ATCC 25922 at 40 ug/disk after 24 hr by disk-diffusion method; type: functional
Escherichia coli [17] = test: Antibacterial activity against Escherichia coli ATCC 25922 at 140 ug/disk after 24 hr by disk-diffusion method; type: functional
Nocardia [18] = test: Antibacterial activity against Nocardia canis at 140 ug/disk after 24 hr by disk diffusion method; type: functional
Escherichia coli [19] = test: Antibacterial activity against Escherichia coli ATCC 25922 at 20 ug/disk after 24 hr by disk-diffusion method; type: functional
Nocardia [20] = test: Antibacterial activity against Nocardia canis at 40 ug/disk after 24 hr by disk diffusion method; type: functional
Nocardia [21] = test: Antibacterial activity against Nocardia canis at 20 ug/disk after 24 hr by disk diffusion method; type: functional, organism-based
[22] = system: Staphylococcus epidermidis; test: Antibacterial activity against Staphylococcus epidermidis ATCC 12228 at 140 ug/disk after 24 hr by disk diffusion method; type: functional
[23] = system: Staphylococcus epidermidis; test: Antibacterial activity against Staphylococcus epidermidis ATCC 12228 at 40 ug/disk after 24 hr by disk diffusion method; type: functional
[24] = system: Staphylococcus epidermidis; test: Antibacterial activity against Staphylococcus epidermidis ATCC 12228 at 20 ug/disk after 24 hr by disk diffusion method; type: functional, organism-based
Bacillus cereus [25] = test: Antibacterial activity against Bacillus cereus NRRL 3711 at 140 ug/disk after 24 hr by disk diffusion method; type: functional; settings: for zone of inhibition at 140 µg/disc: NRRL 3711, 24 h, read-out: DIZ
Bacillus cereus [26] = test: Antibacterial activity against Bacillus cereus NRRL 3711 at 40 ug/disk after 24 hr by disk diffusion method; type: functional; settings: for zone of inhibition at 40 µg/disc: NRRL 3711, 24 h, read-out: DIZ
Bacillus cereus [27] = test: Antibacterial activity against Bacillus cereus NRRL 3711 at 20 ug/disk after 24 hr by disk diffusion method; type: functional; settings: for zone of inhibition at 20 µg/disc: NRRL 3711, 24 h, read-out: DIZ
Staphylococcus aureus [28] = test: Antibacterial activity against Staphylococcus aureus ATCC 25923 at 140 ug/disc after 24 hr by disk diffusion method; type: functional
Staphylococcus aureus [29] = test: Antibacterial activity against Staphylococcus aureus ATCC 25923 at 40 ug/disc after 24 hr by disk diffusion method; type: functional
Staphylococcus aureus [30] = test: Antibacterial activity against Staphylococcus aureus ATCC 25923 at 20 ug/disc after 24 hr by disk diffusion method; type: functional
[31] = ATCC 25923, 24 h, read-out: DIZ
[32] = ATCC 25922, 24 h, read-out: DIZ

Row | SMILES | diameter of the inhibition zone (DIZ) (Aspergillus niger [1]) | diameter of the inhibition zone (DIZ) (Aspergillus niger [2]) | zone of inhibition at 140 µg/disc (Rhodotorula mucilaginosa [3]) | diameter of the inhibition zone (DIZ) (Rhodotorula mucilaginosa [4]) | diameter of the inhibition zone (DIZ) (Rhodotorula mucilaginosa [5]) | zone of inhibition at 140 µg/disc (Candida albicans [6]) | zone of inhibition at 40 µg/disc (Candida albicans [7]) | diameter of the inhibition zone (DIZ) (Proteus vulgaris [9]) | diameter of the inhibition zone (DIZ) (Proteus vulgaris [11]) | diameter of the inhibition zone (DIZ) (Proteus vulgaris [12]) | diameter of the inhibition zone (DIZ) (Pseudomonas aeruginosa [13]) | diameter of the inhibition zone (DIZ) (Pseudomonas aeruginosa [14]) | diameter of the inhibition zone (DIZ) (Pseudomonas aeruginosa [15]) | diameter of the inhibition zone (DIZ) (Escherichia coli [16]) | diameter of the inhibition zone (DIZ) (Nocardia [18]) | diameter of the inhibition zone (DIZ) (Escherichia coli [19]) | diameter of the inhibition zone (DIZ) (Nocardia [20]) | diameter of the inhibition zone (DIZ) (Nocardia [21]) | diameter of the inhibition zone (DIZ) [23] | diameter of the inhibition zone (DIZ) [24] | also measured
1 | CC1(C)CC(=O)C2=C(C1)OC1=C(C(=O)CC(C)(C)C1)C2c1ccc(C2C3=C(CC(C)(C)CC3=O)OC3=C2C(=O)CC(C)(C)C3)cc1 | inactive | inactive | 9 mm | inactive | inactive | 9 mm | 9 mm | inactive | inactive | inactive | inactive | inactive | inactive | inactive | inactive | inactive | inactive | inactive | inactive | inactive | diameter of the inhibition zone (DIZ) (Candida albicans [8]): inactive; diameter of the inhibition zone (DIZ) (Aspergillus niger [10]): inactive; diameter of the inhibition zone (DIZ) (Escherichia coli [17]): inactive; diameter of the inhibition zone (DIZ) [22]: inactive; zone of inhibition at 140 µg/disc (Bacillus cereus [25]): 7 mm; diameter of the inhibition zone (DIZ) (Bacillus cereus [26]): inactive; diameter of the inhibition zone (DIZ) (Bacillus cereus [27]): inactive; diameter of the inhibition zone (DIZ) (Staphylococcus aureus [28]): inactive; diameter of the inhibition zone (DIZ) (Staphylococcus aureus [29]): inactive; diameter of the inhibition zone (DIZ) (Staphylococcus aureus [30]): inactive
2 | O=C1CCCC2=C1C(c1ccc(C3C4=C(CCCC4=O)OC4=C3C(=O)CCC4)cc1)C1=C(CCCC1=O)O2 | inactive | inactive | 10 mm |  |  | 8 mm | 8 mm | inactive | inactive | inactive | inactive | inactive | inactive | inactive | inactive | inactive | inactive | inactive | inactive | inactive | zone of inhibition at 20 µg/disc (Rhodotorula mucilaginosa [4]; read-out: DIZ): 8 mm; zone of inhibition at 40 µg/disc (Rhodotorula mucilaginosa [5]; read-out: DIZ): 9 mm; zone of inhibition at 20 µg/disc (Candida albicans [8]): 7 mm; zone of inhibition at 140 µg/disc (Aspergillus niger [10]): 7 mm; diameter of the inhibition zone (DIZ) (Escherichia coli [17]): inactive; zone of inhibition at 140 µg/disc ([22]; ATCC 12228, 24 h, read-out: DIZ): 7 mm; zone of inhibition at 140 µg/disc (Bacillus cereus [25]): 8 mm; zone of inhibition at 40 µg/disc (Bacillus cereus [26]): 9 mm; zone of inhibition at 20 µg/disc (Bacillus cereus [27]): 8 mm; zone of inhibition at 140 µg/disc (Staphylococcus aureus [28]; [31]): 14 mm; zone of inhibition at 40 µg/disc (Staphylococcus aureus [29]; [31]): 10 mm; zone of inhibition at 20 µg/disc (Staphylococcus aureus [30]; [31]): 8 mm
3 | O=C1CC(c2ccccc2)CC2=C1C(c1cccc(C3C4=C(CC(c5ccccc5)CC4=O)OC4=C3C(=O)CC(c3ccccc3)C4)c1)C1=C(CC(c3ccccc3)CC1=O)O2 (stereo not given) | inactive | inactive | 7 mm | inactive | inactive | 8 mm | 8 mm | inactive | inactive | inactive | inactive | inactive | inactive | inactive | inactive | inactive | inactive | inactive | inactive | inactive | zone of inhibition at 20 µg/disc (Candida albicans [8]): 7 mm; diameter of the inhibition zone (DIZ) (Aspergillus niger [10]): inactive; diameter of the inhibition zone (DIZ) (Escherichia coli [17]): inactive; diameter of the inhibition zone (DIZ) [22]: inactive; zone of inhibition at 140 µg/disc (Bacillus cereus [25]): 12 mm; zone of inhibition at 40 µg/disc (Bacillus cereus [26]): 11 mm; zone of inhibition at 20 µg/disc (Bacillus cereus [27]): 8 mm; diameter of the inhibition zone (DIZ) (Staphylococcus aureus [28]): inactive; diameter of the inhibition zone (DIZ) (Staphylococcus aureus [29]): inactive; diameter of the inhibition zone (DIZ) (Staphylococcus aureus [30]): inactive
4 | CC1(C)CC(=O)C2=C(C1)OC1=C(C(=O)CC(C)(C)C1)C2c1cccc(C2C3=C(CC(C)(C)CC3=O)OC3=C2C(=O)CC(C)(C)C3)c1 | inactive | inactive | 7 mm | inactive | inactive | 7 mm | 7 mm | inactive | inactive | inactive | inactive | inactive | inactive |  | inactive | inactive | inactive | inactive | inactive | inactive | diameter of the inhibition zone (DIZ) (Candida albicans [8]): inactive; diameter of the inhibition zone (DIZ) (Aspergillus niger [10]): inactive; zone of inhibition at 40 µg/disc (Escherichia coli [16]; [32]): 7 mm; zone of inhibition at 140 µg/disc (Escherichia coli [17]; [32]): 8 mm; diameter of the inhibition zone (DIZ) [22]: inactive; zone of inhibition at 140 µg/disc (Bacillus cereus [25]): 7 mm; diameter of the inhibition zone (DIZ) (Bacillus cereus [26]): inactive; diameter of the inhibition zone (DIZ) (Bacillus cereus [27]): inactive; diameter of the inhibition zone (DIZ) (Staphylococcus aureus [28]): inactive; diameter of the inhibition zone (DIZ) (Staphylococcus aureus [29]): inactive; diameter of the inhibition zone (DIZ) (Staphylococcus aureus [30]): inactive
5 | CC1(C)CCC2=C(C1=O)C(c1ccc(C3C4=C(CCC(C)(C)C4=O)OC4=C3C(=O)C(C)(C)CC4)cc1)C1=C(CCC(C)(C)C1=O)O2 | inactive | inactive |  | inactive | inactive |  |  | inactive | inactive | inactive | inactive | inactive | inactive | inactive | inactive | inactive | inactive | inactive | inactive | inactive | diameter of the inhibition zone (DIZ) (Rhodotorula mucilaginosa [3]): inactive; diameter of the inhibition zone (DIZ) (Candida albicans [6]): inactive; diameter of the inhibition zone (DIZ) (Candida albicans [7]): inactive; diameter of the inhibition zone (DIZ) (Candida albicans [8]): inactive; zone of inhibition at 140 µg/disc (Aspergillus niger [10]): 7 mm; diameter of the inhibition zone (DIZ) (Escherichia coli [17]): inactive; diameter of the inhibition zone (DIZ) [22]: inactive; diameter of the inhibition zone (DIZ) (Bacillus cereus [25]): inactive; diameter of the inhibition zone (DIZ) (Bacillus cereus [26]): inactive; diameter of the inhibition zone (DIZ) (Bacillus cereus [27]): inactive; diameter of the inhibition zone (DIZ) (Staphylococcus aureus [28]): inactive; diameter of the inhibition zone (DIZ) (Staphylococcus aureus [29]): inactive; diameter of the inhibition zone (DIZ) (Staphylococcus aureus [30]): inactive
